Laboratory results from PMC12040169 (PLOS Biology, 2025).
In brackets after ≈: the same amount, converted by molar mass. Read-outs that look alike come from different tables or passages of the source.

Assays:
[1] = biological target: T1, acyl-modification-free ctFabH (Chlamydia trachomatis, UniProt O84242); experiment: intact protein LC/MS; format: biochemical; details: covalent acyl-enzyme intermediate; 10 µM protein, 50 µM acyl-CoA, pH 7.0
T1 construct: gene fabH
T1 sequence (O84242 2-327): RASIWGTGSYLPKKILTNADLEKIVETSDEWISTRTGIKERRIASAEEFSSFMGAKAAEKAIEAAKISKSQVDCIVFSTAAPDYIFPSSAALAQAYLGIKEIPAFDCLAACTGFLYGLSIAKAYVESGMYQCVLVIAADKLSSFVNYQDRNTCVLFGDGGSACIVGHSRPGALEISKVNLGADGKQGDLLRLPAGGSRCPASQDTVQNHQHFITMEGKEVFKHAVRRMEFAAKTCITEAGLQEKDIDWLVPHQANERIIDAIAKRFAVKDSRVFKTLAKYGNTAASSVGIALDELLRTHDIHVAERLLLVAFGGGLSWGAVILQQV

[2] = test system: T2, C. trachomatis L2/434/Bu expressing GFP (CTL2-GFP); experiment: microbe, parasite or virus in culture; set-up: species or system HeLa; C. trachomatis total inclusion area by high-content imaging, normalised to DMSO; details: Chlamydia trachomatis, 28.5 h; read-out: MIC (µM), total inclusion area
T2 construct: L2/434/Bu GFP intracellular growth in HeLa cells
From the text: (§1) We screened a library of 36,785 small molecules displaying drug-like properties and covering a wide chemical space (Fig 1A and S2A Data). In this process, we also complemented the assay described above with an imaging-based readout (Fig 1B). After measurements of bulk GFP and resorufin fluorescence, cells were fixed, stained with the DNA dye Hoechst, and imaged at a high-content imaging platform to detect chlamydial inclusions (GFP) and host cell nuclei (Hoechst). The total area and number of inclusions in individual wells and the number of nuclei then served as additional proxies for chlamydial growth and host cell viability. […] MICs were calculated as described above.

C. albicans = test system: T3, C. albicans; experiment: microbe, parasite or virus in culture; set-up: Microbial growth in liquid dilution assay, OD600 relative to DMSO control; details: Candida albicans, read-out: C. albicans, IC50 (µM) estimate
T3 construct: DSM 1577

G. vaginalis = test system: T4, G. vaginalis; experiment: microbe, parasite or virus in culture; set-up: Microbial growth in liquid dilution assay, OD600 relative to DMSO control; details: Gardnerella vaginalis, read-out: G. vaginalis, IC50 (µM) estimate
T4 construct: DSM 4944

[3] = biological target: T1, acyl-modification-free ctFabH; experiment: intact protein LC/MS; MS/MS of tryptic peptides; format: binding; details: covalent; active site cysteine; 10 µM protein, 50 µM compound, pH 7.0, 10 min to 1 h
E. faecalis = test system: T5, E. faecalis; experiment: microbe, parasite or virus in culture; set-up: Microbial growth in liquid dilution assay, OD600 relative to DMSO control; details: Enterococcus faecalis; estimated IC50; read-out: E. faecalis, IC50 (µM) estimate
T5 construct: DSM 20478
From the text: (§2) Compound effects on commensal microbes in dilution assay As our objective was to discover compounds that inhibit Chlamydia selectively but spare commensal bacteria, we further tested 15 of our top compounds (c1e–c10e and c1v–c5v) against five bacterial species, Escherichia coli, Lactobacillus reuteri, Enterococcus faecalis, Bacteroides thetaiotaomicron, and Bifidobacterium adolescentis, representing the four dominating phyla of the human gut microbiota. […] Exceptions were c3e and c5e, which at 30 µM were inhibitory to some species. […] Of note, c1e–c3e had little or no effect on the growth of an even larger set of species of gut bacteria, also including Blautia coccoides, Prevotella copri, Prevotella histicola, Bacteroides fragilis, and Dubosiella newyorkensis, when tested in radial diffusion assays, in which the bacteria were exposed to compounds for 24–48 h before measurements of growth inhibition zones (S10B Fig and S5G Data).

B. thetaiotaomicron = test system: T6, B. thetaiotaomicron; experiment: microbe, parasite or virus in culture; set-up: Microbial growth in liquid dilution assay, OD600 relative to DMSO control; details: Bacteroides thetaiotaomicron; estimated IC50; read-out: B. thetaiotaomicron, IC50 (µM) estimate
T6 construct: DSM 2079
From the text: as §2

L. reuteri = test system: T7, L. reuteri; experiment: microbe, parasite or virus in culture; set-up: Microbial growth in liquid dilution assay, OD600 relative to DMSO control; details: Limosilactobacillus reuteri; estimated IC50; read-out: L. reuteri, IC50 (µM) estimate
T7 construct: DSM 20016
From the text: as §2

E. coli = test system: T8, E. coli; experiment: microbe, parasite or virus in culture; set-up: Microbial growth in liquid dilution assay, OD600 relative to DMSO control; details: Escherichia coli; estimated IC50; read-out: E. coli, IC50 (µM) estimate
T8 construct: DSM 301
From the text: as §2

B. adolescentis = test system: T9, B. adolescentis; experiment: microbe, parasite or virus in culture; set-up: Microbial growth in liquid dilution assay, OD600 relative to DMSO control; details: Bifidobacterium adolescentis; estimated IC50; read-out: B. adolescentis, IC50 (µM) estimate
T9 construct: DSM 20083
From the text: as §2

[4] = test system: T2, C. trachomatis L2/434/Bu expressing GFP (CTL2-GFP); experiment: microbe, parasite or virus in culture; set-up: C. trachomatis total inclusion area by high-content imaging, normalised to DMSO; details: Chlamydia trachomatis, HeLa, 28.5 h; read-out: IC50 (µM), total inclusion area
In short: (§3)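 Screening measures GFP fluorescence from the reporter strain and resorufin fluorescence for host viability, with Hoechst-based imaging of fixed cells adding inclusion area, inclusion number and nuclei count per well.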

[5] = test system: T10, CTL2-GFP (C. trachomatis L2/434/Bu, GFP-expressing); experiment: microbe, parasite or virus in culture; set-up: C. trachomatis growth in HeLa, dose-response, mean of bulk GFP fluorescence and imaged total inclusion area; details: Chlamydia trachomatis, HeLa, 28.5 h; mean of GFP and inclusion area
T10 construct: L2/434/Bu, GFP-expressing
In short: as §3

[6] = test system: T2, C. trachomatis L2/434/Bu expressing GFP (CTL2-GFP); experiment: microbe, parasite or virus in culture; set-up: species or system HeLa; C. trachomatis GFP growth in infected HeLa cells, bulk GFP fluorescence normalised to DMSO; details: Chlamydia trachomatis, 26 h; read-out: MIC (µM), bulk GFP fluorescence
Protocol: (§4) MICs were calculated as described above.

[7] = test system: T10, CTL2-GFP (C. trachomatis L2/434/Bu, GFP-expressing); experiment: microbe, parasite or virus in culture; set-up: species or system HeLa; C. trachomatis growth in HeLa, dose-response, mean of bulk GFP fluorescence and imaged total inclusion area; details: Chlamydia trachomatis, 28.5 h; mean of GFP and inclusion area
In short: as §3

[8] = test system: T2, C. trachomatis L2/434/Bu expressing GFP (CTL2-GFP); experiment: microbe, parasite or virus in culture; set-up: C. trachomatis GFP growth in infected HeLa cells, bulk GFP fluorescence normalised to DMSO; details: Chlamydia trachomatis, HeLa, 26 h; read-out: IC50 (µM), bulk GFP fluorescence
Protocol: as §4

[9] = biological target: T11, ctFabH (CTL2 FabH), His6(-fMet)SG-ctFabH (Chlamydia trachomatis, UniProt O84242); experiment: continuous UV assay of acetoacetyl-CoA at […] nm; format: biochemical; details: covalent; 20 µM enzyme, 30 µM compound, 100 µM acetyl-CoA, 100 µM malonyl-CoA, pH 8.0, 25 °C, 50 mM MgCl2; with or without CoA preincubation
T11 construct: synthetic gene, modified pRSF-Duet1, E. coli host; partly acylated (mainly pentanoyl) as purified
T11 sequence (O84242 2-327): T1 sequence (O84242 2-327)

L. crispatus = test system: T12, L. crispatus; experiment: microbe, parasite or virus in culture; set-up: Microbial growth in liquid dilution assay, OD600 relative to DMSO control; details: Lactobacillus crispatus; estimated IC50; read-out: L. crispatus, IC50 (µM) estimate
T12 construct: DSM 20584

L. iners = test system: T13, L. iners; experiment: organism not typed; set-up: Microbial growth in liquid dilution assay, OD600 relative to DMSO control; details: estimated IC50; read-out: L. iners, IC50 (µM) estimate
T13 construct: DSM 13335

in vitro [10] = experiment: in vitro; set-up: Viability of infected HeLa host cells, resazurin conversion, bulk resorufin fluorescence relative to DMSO; details: human, hela cells; bulk resorufin, mean of 3
[11] = biological target: T11, ctFabH (CTL2 FabH), His6(-fMet)SG-ctFabH; experiment: continuous UV assay of acetoacetyl-CoA at […] nm; format: biochemical; details: 20 µM enzyme, 100 µM acetyl-CoA, 100 µM malonyl-CoA, pH 8.0, 25 °C, 50 mM MgCl2; surrogate of malonyl-ACP
[12] = test system: T10, CTL2-GFP (C. trachomatis L2/434/Bu, GFP-expressing); set-up: species or system HeLa; Intracellular C. trachomatis growth in HeLa cells, bulk GFP fluorescence relative to DMSO; details: 28.5 h, 10 µM; inhibitor
in vitro [13] = details: human, hela cells
[14] = test system: T2, C. trachomatis L2/434/Bu expressing GFP (CTL2-GFP); set-up: species or system HeLa; C. trachomatis total inclusion area by high-content imaging, normalised to DMSO; details: 28.5 h, 10 µM; inhibitor
From the text: as §1, with “In” for “We screened a library of 36,785 small molecules displaying drug-like properties and covering a wide chemical space (Fig 1A and S2A Data). In”

SMILES: CC[C@H](C)C(=O)SCCNC(=O)CCNC(=O)[C@H](O)C(C)(C)COP(=O)(O)OP(=O)(O)OC[C@H]1O[C@@H](n2cnc3c(N)ncnc32)[C@H](O)[C@@H]1OP(=O)(O)O [2-methylbutyryl-CoA]
- intact protein LC/MS [1]: incubation of this stripped ctFabH with 2-methylbutyryl-CoA or isovaleryl-CoA

SMILES: O=C1Oc2nc3ccccc3cc2CN1C1CC1 [c1e]
- MIC [2]: 0.046 µM (≈ 0.0111 µg/mL)
- IC50 (C. albicans): > 30 µM
- IC50 (G. vaginalis): > 30 µM
- intact protein LC/MS; MS/MS of tryptic peptides [3]: incubation with c1e generated an FabH-c1e adduct
- IC50 (E. faecalis): > 30 µM
- IC50 (B. thetaiotaomicron): > 30 µM
- IC50 (L. reuteri): > 30 µM
- IC50 (E. coli): > 30 µM
- IC50 (B. adolescentis): > 30 µM
- IC50 [4]: 0.0199 µM
- IC50 [5]: 0.0213 µM
- MIC [6]: 0.038 µM (≈ 0.00913 µg/mL)
- MIC [7]: 0.042 µM (≈ 0.0101 µg/mL)
- IC50 [8]: 0.0226 µM
- inhibition [9]: c1e displayed inhibitory activity towards ctFabH when added at about equimolar concentration
- IC50 (L. crispatus): > 30 µM
- IC50 (L. iners): > 30 µM
- viability at 28.5 h, 0.000416667 µM (in vitro [10]): 95.3%
- viability at 28.5 h, 0.00125 µM (in vitro [10]): 82.8%
- viability at 28.5 h, 0.00375 µM (in vitro [10]): 88.7%
- viability at 28.5 h, 0.0123333 µM (in vitro [10]): 87.6%
- viability at 28.5 h, 0.037 µM (in vitro [10]): 93.9%
- viability at 28.5 h, 0.111 µM (in vitro [10]): 89.2%
- viability at 28.5 h, 0.333 µM (in vitro [10]): 91.7%
- viability at 28.5 h, 1 µM (in vitro [10]): 89.5%
- viability at 28.5 h, 3 µM (in vitro [10]): 98.2%
- viability at 28.5 h, 10 µM (in vitro [10]): 103%
- viability at 28.5 h, 30 µM (in vitro [10]): 46.5%

SMILES: CC(C)(COP(=O)(O)OP(=O)(O)OC[C@H]1O[C@@H](n2cnc3c(N)ncnc32)[C@H](O)[C@@H]1OP(=O)(O)O)[C@@H](O)C(=O)NCCC(=O)NCCSC(=O)CC(=O)O [malonyl-CoA]
- continuous UV assay of acetoacetyl-CoA at 302 nm [11]: using acetyl-CoA and malonyl-CoA (instead of malonyl-ACP) as substrates

SMILES: CCn1cc(C(=O)O)c(=O)c2cc(F)c(NC3CCCCC3)cc21 [CBK286635]
- % of control remaining [12]: 100.652
- viability at 28.5 h, 10 µM (in vitro [13]): 89.2%
- % of control remaining [14]: 72.3144
